This assay deals with T1, hT2R54 (Homo sapiens, UniProt P59534).
T1 construct: expressed in transfected cells; it overexpresses a promiscuous G protein
T1 sequence (P59534 1-338): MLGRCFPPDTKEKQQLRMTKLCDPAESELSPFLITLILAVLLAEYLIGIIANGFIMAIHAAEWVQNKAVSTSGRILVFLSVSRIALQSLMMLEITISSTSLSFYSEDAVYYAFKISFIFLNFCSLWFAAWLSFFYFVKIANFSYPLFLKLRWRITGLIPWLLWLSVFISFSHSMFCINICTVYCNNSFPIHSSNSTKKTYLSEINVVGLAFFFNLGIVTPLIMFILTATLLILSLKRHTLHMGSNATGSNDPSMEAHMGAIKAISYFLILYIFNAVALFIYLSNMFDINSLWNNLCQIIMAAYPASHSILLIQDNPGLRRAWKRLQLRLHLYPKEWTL
In words: Cell-based assay for measuring hT2R54 inhibition (FLIPR calcium, Fluo4AM, acetaminophen as bitter agonist). The settings on record: for IC50: read-out: hT2R54 IC50. How it is done: Cells stably expressing hT2R54 and a promiscuous G protein were seeded in 384 well plates 24 hours prior to the experiment. Cells were loaded with the calcium indicator Fluo4AM, washed and loaded in a FLIPR instrument with a compound plate containing increasing doses of acetaminophen in quadruplicates and prepared at 2× of final concentration. Baseline was recorded for 10 seconds, then 25 μl of […] was added onto 25 μl of cells and resulting changes in fluorescence were monitored over an additional 3 minutes. The host cell line overexpressing the G protein but not hT2R54 was treated as described above.
The ability of a test compound that blocks bitter taste elicited through hT2R54 was measured in this assay, as follows. Cells stably expressing hT2R54 and a promiscuous G protein were seeded in 384 well plates 24 hours prior to the experiment. Cells were loaded with the calcium indicator Fluo4AM, washed and loaded in a FLIPR instrument with a compound plate containing increasing doses of acetaminophen in buffer and increasing doses of acetaminophen with depicted fixed concentrations of Cmpd 109 (Table 4). Base line was recorded for 10 seconds, then 25 μl of compound and compound mixtures were added onto 25 μl of cells and resulting changes in fluorescence were monitored over an additional 3 minutes. The concentration of test compound that blocks half of the response when the bitter compound alone is present is presented as the EC50 or IC50 value.
In the examples above, the EC50 of compounds for blocking bitter taste elicited through T2R54 was measured in the same manner.

[1] abbreviates: other T2R54 bitter blockers (table after b418).
[2] abbreviates: Table 2, cells stably expressing hT2R54 and a promiscuous G protein.

Consider 49 compounds from patent US12295396B2, “Antagonists of T2R54 and compositions and uses thereof” (Firmenich Incorporated, priority 2018, dated 2025).

SMILES strings stand for the structures. Read-outs that look alike come from different tables or passages of the source.

`Cc1cc(N2CCC(C(N)=O)CC2)nc(-c2ccccc2)n1` [A, 1-(6-Methyl-2-phenylpyrimidin-4-yl)piperidine-4-carboxamide]: the IC50 under setting [1] is 2900 nM.

For the compound `COc1cc2ncnc(NCc3cccc4c3OCO4)c2cc1OC` [B], under setting [1], the IC50 came out at 1800 nM.

In the case of `CC(=O)Nc1ccc(O)cc1` [acetaminophen, reference compound], the “response of hT2R54-expressing cells to bitter tastant” value (FIG. 1, cells expressing hT2R54, not control host cells) was “measurable change in intracellular calcium”.

Consider `COc1ccc(F)cc1C(=O)N1CCN(CC(=O)Nc2cc3c(cc2C(C)=O)OCO3)CC1` [compound 2, N-(6-Acetylbenzo[d][1,3]dioxol-5-yl)-2-(4-(5-fluoro-2-methoxybenzoyl)piperazin-1-yl)acetamide], for which, under setting [2], the IC50 amounted to 27 nM.

In the case of `CCCOC(=O)N1CCN(CC(=O)Nc2cc3c(cc2C(C)=O)OCO3)CC1` [compound 3, Propyl 4-(2-((6-Acetylbenzo[d][1,3]dioxol-5-yl)amino)-2-oxoethyl)piperazine-1-carboxylate], the IC50 under setting [2] worked out at 15 nM.

In the case of `CC(=O)c1cc2c(cc1NC(=O)CN1CCN(C(=O)NC(C)C)CC1)OCO2` [compound 4, 4-(2-((6-Acetylbenzo[d][1,3]dioxol-5-yl)amino)-2-oxoethyl)-N-isopropylpiperazine-1-carboxamide], the IC50 under setting [2] came to 34 nM.

As to `CC(=O)c1cc2c(cc1NC(=O)CN1CCN(S(=O)(=O)C(C)C)CC1)OCO2` [compound 5, N-(6-acetylbenzo[d][1,3]dioxol-5-yl)-2-(4-(isopropylsulfonyl)piperazin-1-yl)acetamide], the IC50 under setting [2] worked out at 130 nM.

On to `COc1cc2c(cc1NC(=O)CN1CCN(C(=O)CC(C)C)CC1)OCO2` [compound 6, N-(6-Methoxybenzo[d][1,3]dioxol-5-yl)-2-(4-(3-methylbutanoyl)piperazin-1-yl)acetamide], for which the IC50 under setting [2] stood at 490 nM.

For `CC(=O)c1cc2c(cc1NC(=O)CN1CCN(C(C)=O)CC1)OCO2` [compound 7], the IC50 under setting [2] is 90 nM.

Take `CCC(=O)N1CCN(CC(=O)Nc2cc3c(cc2C(C)=O)OCO3)CC1` [compound 8]: the IC50 under setting [2] came out at 50 nM.

For `CCCC(=O)N1CCN(CC(=O)Nc2cc3c(cc2C(C)=O)OCO3)CC1` [compound 9], under setting [2], the IC50 came out at 29 nM.

For the compound `CCCCC(=O)N1CCN(CC(=O)Nc2cc3c(cc2C(C)=O)OCO3)CC1` [compound 10], the IC50 under setting [2] turned out to be 9 nM.

In the case of `CC(=O)c1cc2c(cc1NC(=O)CN1CCN(C(=O)C(C)C)CC1)OCO2` [compound 11], under setting [2], the IC50 was determined as 40 nM.

With `CC(=O)c1cc2c(cc1NC(=O)CN1CCN(C(=O)C3CC3)CC1)OCO2` [compound 12], the IC50 under setting [2] turned out to be 40 nM.

As to `CC(=O)c1cc2c(cc1NC(=O)CN1CCN(C(=O)C(C)(C)C)CC1)OCO2` [compound 13], the IC50 under setting [2] is 23 nM.

On to `CC(=O)c1cc2c(cc1NC(=O)CN1CCN(C(=O)CC(C)(C)C)CC1)OCO2` [compound 14], for which, under setting [2], the IC50 came out at 80 nM.

For `CC(=O)c1cc2c(cc1NC(=O)CN1CCN(C(=O)CC3CC3)CC1)OCO2` [compound 15], the IC50 under setting [2] is 24 nM.

For `CC(=O)c1cc2c(cc1NC(=O)CN1CCN(C(=O)C3CCCC3)CC1)OCO2` [compound 16], the IC50 under setting [2] stood at 29 nM.

As to `CC(=O)c1cc2c(cc1NC(=O)CN1CCN(C(=O)C3CCCCC3)CC1)OCO2` [compound 17], the IC50 under setting [2] stood at 150 nM.

On to `CC(=O)c1cc2c(cc1NC(=O)CN1CCN(C(=O)CO)CC1)OCO2` [compound 18], for which, under setting [2], the IC50 amounted to 216 nM.

As for `COCC(=O)N1CCN(CC(=O)Nc2cc3c(cc2C(C)=O)OCO3)CC1` [compound 19], the IC50 under setting [2] worked out at 60 nM.

On to `CC(=O)c1cc2c(cc1NC(=O)CN1CCN(C(=O)COC(C)C)CC1)OCO2` [compound 20], for which the IC50 under setting [2] came out at 170 nM.

Turning to `COCCOCC(=O)N1CCN(CC(=O)Nc2cc3c(cc2C(C)=O)OCO3)CC1` [compound 21], under setting [2], the IC50 turned out to be 179 nM.

For the compound `CC(=O)c1cc2c(cc1NC(=O)CN1CCN(C(=O)C3CCCCO3)CC1)OCO2` (stereo not shown) [compound 23], the IC50 under setting [2] was determined as 18 nM.

In the case of `CC(=O)c1cc2c(cc1NC(=O)CN1CCN(C(=O)C3CCOCC3)CC1)OCO2` [compound 24], the IC50 under setting [2] amounted to 336 nM.

With `CC(=O)c1cc2c(cc1NC(=O)CN1CCN(C(=O)C3CCN(C)CC3)CC1)OCO2` [compound 25], under setting [2], the IC50 was determined as 4360 nM.

As for `CC(=O)c1cc2c(cc1NC(=O)CN1CCN(C(=O)CN3CCCC3)CC1)OCO2` [compound 27], the IC50 under setting [2] is 176 nM.

On to `CC(=O)c1cc2c(cc1NC(=O)CN1CCN(C(=O)CN3CCOCC3)CC1)OCO2` [compound 28], for which the IC50 under setting [2] came to 107 nM.

For the compound `CCOC(=O)N1CCN(CC(=O)Nc2cc3c(cc2C(C)=O)OCO3)CC1` [compound 29], the IC50 under setting [2] was 311 nM.

Consider `CC(=O)c1cc2c(cc1NC(=O)CN1CCN(C(=O)OC(C)C)CC1)OCO2` [compound 30], for which the IC50 under setting [2] amounted to 40 nM.

For the compound `CC(=O)c1cc2c(cc1NC(=O)CN1CCN(C(=O)Oc3ccccc3)CC1)OCO2` [compound 31], the IC50 under setting [2] turned out to be 262 nM.

With `CC(=O)c1cc2c(cc1NC(=O)CN1CCN(C(=O)NCc3ccccc3)CC1)OCO2` [compound 32], under setting [2], the IC50 stood at 21 nM.

Regarding `CC(=O)c1cc2c(cc1NC(=O)CN1CCN(C(=O)Nc3ccccc3)CC1)OCO2` [compound 33], the IC50 under setting [2] stood at 50 nM.

For `CC(=O)c1cc2c(cc1NC(=O)CN1CCN(C(=O)c3ccccc3)CC1)OCO2` [compound 34], the IC50 under setting [2] turned out to be 20 nM.

In the case of `CC(=O)c1cc2c(cc1NC(=O)CN1CCN(C(=O)c3cccs3)CC1)OCO2` [compound 35], the IC50 under setting [2] was found to be 40 nM.

For `CC(=O)c1cc2c(cc1NC(=O)CN1CCN(C(=O)c3ccco3)CC1)OCO2` [compound 36], the IC50 under setting [2] is 4 nM.

In the case of `CC(=O)c1cc2c(cc1NC(=O)CN1CCN(C(=O)c3ccsc3)CC1)OCO2` [compound 37], the IC50 under setting [2] is 23 nM.

With `CC(=O)c1cc2c(cc1NC(=O)CN1CCN(C(=O)c3cccc(O)c3)CC1)OCO2` [compound 38], the IC50 under setting [2] came out at 50 nM.

Turning to `CC(=O)c1cc2c(cc1NC(=O)CN1CCN(C(=O)c3ccncc3)CC1)OCO2` [compound 39], the IC50 under setting [2] stood at 70 nM.

Take `CC(=O)c1cc2c(cc1NC(=O)CN1CCN(C(=O)c3ccccc3O)CC1)OCO2` [compound 40]: the IC50 under setting [2] stood at 80 nM.

Consider `COc1ccccc1C(=O)N1CCN(CC(=O)Nc2cc3c(cc2C(C)=O)OCO3)CC1` [compound 41], for which the IC50 under setting [2] amounted to 40 nM.

Turning to `CC(=O)c1cc2c(cc1NC(=O)CN1CCN(C(=O)c3cccnc3)CC1)OCO2` [compound 42], the IC50 under setting [2] was found to be 60 nM.

On to `CC(=O)c1cc2c(cc1NC(=O)CN1CCN(C(=O)c3ccc(O)cc3)CC1)OCO2` [compound 43], for which the IC50 under setting [2] was 80 nM.

Regarding `CC(=O)c1cc2c(cc1NC(=O)CN1CCN(C(=O)c3ccccc3F)CC1)OCO2` [compound 44], the IC50 under setting [2] turned out to be 50 nM.

Turning to `CC(=O)c1cc2c(cc1NC(=O)CN1CCN(C(=O)c3ccc(F)cc3)CC1)OCO2` [compound 45], under setting [2], the IC50 worked out at 28 nM.

Take `CC(=O)c1cc2c(cc1NC(=O)CN1CCN(C(=O)c3cccc(F)c3)CC1)OCO2` [compound 46]: the IC50 under setting [2] was found to be 26 nM.

Regarding `COc1ccc(C(=O)N2CCN(CC(=O)Nc3cc4c(cc3C(C)=O)OCO4)CC2)cc1` [compound 47], the IC50 under setting [2] is 21 nM.

Consider `COc1cccc(C(=O)N2CCN(CC(=O)Nc3cc4c(cc3C(C)=O)OCO4)CC2)c1` [compound 48], for which the IC50 under setting [2] amounted to 13 nM.

With `CC(=O)c1cc2c(cc1NC(=O)CN1CCN(C(=O)c3ccccn3)CC1)OCO2` [compound 49], the IC50 under setting [2] came out at 100 nM.

In general, IC50 refers to the concentration at which inhibition is half-maximal.
